Key:
[1] = test system: rice; test: Test B flood test rice; assay type: in vivo, Oryza sativa; conditions: for Plant response rating, Rice (0 to 10 scale, 0 is no effect, 10 is complete control) / Rice plant response rating (0 to 10 scale, 0 is no effect, 10 is complete control): visual evaluation after twelve to sixteen days; for Rice plant response rating (0 to 10 scale, 0 is no effect, 10 is complete control): Rate 125 g/ha, under heading Pre-emergence
How it was run: (§1)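 Plants were grown to the 2-leaf stage before treatment with test chemical, then held in a greenhouse for twelve to sixteen days. Injury was visually rated against untreated controls on a 0–10 scale, where 0 is no effect and 10 is complete control.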

[2] = test system: soybean; test: Test B pre/postemergence soybean; assay type: in vivo, Glycine max
How it was run: (§2)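 Test chemicals in a non-phytotoxic solvent mixture with surfactant were sprayed preemergence onto planted seeds and postemergence onto plants 2 to 18 cm tall (1- to 4-leaf stage). After twelve to sixteen days in a greenhouse, injury was visually rated against untreated controls from 0 (no effect) to 10 (complete control).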

[3] = test system: giant foxtail; test: Test B pre/postemergence giant foxtail; assay type: in vivo, Setaria faberii
How it was run: as §2

[4] = test system: bamyardgrass; test: Test B flood test barnyardgrass; assay type: in vivo, Echinochloa crus-galli; conditions: for Plant response rating, Barnyardgrass (0 to 10 scale, 0 is no effect, 10 is complete control) / Barnyardgrass plant response rating (0 to 10 scale, 0 is no effect, 10 is complete control): visual evaluation after twelve to sixteen days; for Barnyardgrass plant response rating (0 to 10 scale, 0 is no effect, 10 is complete control): under heading Pre-emergence
How it was run: as §1

[5] = Rate 62 g/ha, flood test species, Pre-emergence
[6] = Rate 250 g/ha, Pre-emergence, flood-test species, scale 0 to 10, 0 is no effect, 10 is complete control
[7] = Rate 500 g/ha, Pre-emergence, flood test species, scale 0 to 10 (0 no effect, 10 complete control)
[8] = Postemergence, Rate 125 g/ha, scale 0 to 10, 0 is no effect, 10 is complete control
[9] = Postemergence, Rate 250 g/ha, scale 0 to 10, 0 is no effect, 10 is complete control
[10] = Preemergence, Rate 62 g/ha, scale 0 to 10 (0 no effect, 10 complete control)
[11] = Preemergence, Rate 250 g/ha, scale of 0 to 10 where 0 is no effect and 10 is complete control
[12] = Preemergence, Rate 500 g/ha, scale of 0 to 10 where 0 is no effect and 10 is complete control
[13] = Rate 62 g/ha, Postemergence, scale of 0 to 10 where 0 is no effect and 10 is complete control
[14] = Rate 500 g/ha, Postemergence, scale 0 to 10, 0 no effect, 10 complete control
[15] = Rate 125 g/ha, flood test species
[16] = Postemergence, Rate 500 g/ha, scale of 0 to 10 where 0 is no effect and 10 is complete control
[17] = Preemergence, Rate 125 g/ha, scale of 0 to 10 where 0 is no effect and 10 is complete control
[18] = Postemergence section (flood test species), Rate 500 g/ha, scale of 0 to 10 where 0 is no effect and 10 is complete control
[19] = Rate 62 g/ha, Postemergence (flood test species), scale of 0 to 10 where 0 is no effect and 10 is complete control
[20] = flood test species, listed under Postemergence, Rate 250 g/ha, scale 0 to 10, 0 is no effect, 10 is complete control
[21] = Preemergence, Rate 250 g/ha, scale 0 to 10, 0 is no effect, 10 is complete control
[22] = Preemergence, Rate 500 g/ha, scale 0 to 10, 0 is no effect, 10 is complete control

Compound | Plant response rating, Rice (0 to 10 scale, 0 is no effect, 10 is complete control) [1, 5] | Rice plant response rating (0 to 10 scale, 0 is no effect, 10 is complete control) ([1]; flood test species) | Rice plant response rating [1, 6] | Rice plant response rating [1, 7] | Plant response rating, Soybean [2, 9] | Plant response rating, Soybean [2, 10] | Soybean plant response rating [2, 11] | Soybean plant response rating [2, 13] | Plant response rating, Giant foxtail [3, 8] | Plant response rating, Giant foxtail [3, 9] | Plant response rating, Giant foxtail [3, 10] | Giant foxtail plant response rating [3, 13] | Plant response rating, Barnyardgrass (0 to 10 scale, 0 is no effect, 10 is complete control) [4, 5] | Barnyardgrass plant response rating (0 to 10 scale, 0 is no effect, 10 is complete control) [4, 15] | Barnyardgrass plant response rating [4, 6] | Barnyardgrass plant response rating [4, 7] | Soybean plant response rating [2, 16] | Plant response rating, Soybean [2, 17] | Giant foxtail plant response rating [3, 16] | Plant response rating, Giant foxtail [3, 17] | further results
CC(C)N(C(=O)n1oc(=O)n(N2CCOCC2)c1=O)c1ccc(F)cc1F [Compound 384] | 0 | 0 | 0 | 0 | 3 | 0 | 0 | 1 | 8 | 9 | 9 | 4 | 0 | 0 | 0 | 0 | – | – | – | – | Plant response rating, Soybean [2, 8]: 2; Soybean plant response rating (0 to 10 scale) ([2]; Preemergence, Rate 125 g/ha): 0; Soybean plant response rating [2, 12]: 3; Plant response rating, Soybean [2, 14]: 3; Giant foxtail plant response rating (0 to 10 scale) ([3]; Preemergence, Rate 125 g/ha): 10; Giant foxtail plant response rating [3, 11]: 10; Giant foxtail plant response rating [3, 12]: 10; Plant response rating, Giant foxtail [3, 14]: 9
CC(C)N(C(=O)n1oc(=O)n(C(CF)CF)c1=O)c1ccc(F)cc1 [Compound 390] | 1 | 1 | 1 | 4 | 3 | 0 | 2 | 2 | 9 | 9 | 10 | 9 | 2 | 5 | 4 | 9 | 5 | 0 | 10 | 10 | Soybean plant response rating [2, 12]: 3; Giant foxtail plant response rating [3, 11]: 10; Giant foxtail plant response rating [3, 12]: 10
CC(C)N(C(=O)n1oc(=O)n(CCC(F)(F)F)c1=O)c1ccc(F)cc1 [Compound 397] | – | – | – | – | 5 | 0 | – | 3 | 8 | 9 | 10 | 8 | – | – | – | – | 6 | 0 | 9 | 10 | Rice plant response rating [1, 18]: 0; Rice plant response rating [1, 19]: 0; Plant response rating, Rice [1, 20]: 0; Soybean plant response rating [2, 21]: 0; Soybean plant response rating [2, 22]: 0; Giant foxtail plant response rating [3, 21]: 10; Giant foxtail plant response rating [3, 22]: 10; Plant response rating, Barnyardgrass ([4]; Postemergence (flood test), Rate 125 g/ha, scale 0 to 10, 0 is no effect, 10 is complete control): 0; Barnyardgrass plant response rating [4, 18]: 0; Barnyardgrass plant response rating [4, 19]: 0; Plant response rating, Barnyardgrass [4, 20]: 0
Cc1nc(Cl)sc1C(C)n1c(=O)on(C(=O)N(c2ccc(F)cc2)C(C)C)c1=O (centres unmarked) [Compound 401] | 0 | 0 | 0 | 0 | 1 | 0 | – | 0 | 0 | 2 | 0 | 0 | 0 | 0 | 0 | 0 | 1 | 0 | 6 | 6 | Soybean plant response rating [2, 21]: 0; Soybean plant response rating [2, 22]: 3; Giant foxtail plant response rating [3, 21]: 7; Giant foxtail plant response rating [3, 22]: 8
